{"source": "patent US20100111943A1", "about": "“COMPOSITIONS AND METHODS FOR INHIBITING CANCER METASTASIS” (Medical College of Georgia Research Institute, Inc, priority 2007, published 2010)", "key": {"[1]": {"target": "T1, hsp90α (Homo sapiens, UniProt P07900)", "T1 construct": "acetylation of the endogenous hsp90α due to treatment with LBH589; endogenous in cells; host or cells: MDA-MB-468", "assay": "Biotinylated-geldanamycin (B-GA) binding assay, MDA-MB-468 cell lysates", "description": "(§1) Biotinylated (B)-GA binding to hsp90 was assessed as described previously 26. Briefly, cell-lysates were incubated with or without 17-AAG (Developmental Therapeutics Branch of CTEP/NCI/NIH) for 1 hour at 4° C., and then incubated with B-GA to displace 17-AAG from hsp90 for another 1 h. GM-bound hsp90 was captured by biotin-GA linked to streptavidin Mutein Matrix (Roche Diagnostics, Indianapolis, Ind.) for 1 h at 4° C. The unbound supernatant was removed and the beads were washed three times with lysis buffer. The precipitates were immunoblotted for hsp90.\nCell lysates containing hsp90α and ATP-sepharose were also incubated with B-GA followed by streptavidin coated agarose beads and eluted proteins were analyzed with anti-F antibody. […] MB-468 cells cultured in DMEM medium containing 10% FBS were treated with the indicated concentration of LBH589 for 16 hours. Following this, cell lysates were incubated with B-GA followed by streptavidin coated agarose beads and eluted proteins were analyzed with anti-hsp90α antibody. Acetylation and expression level of endogenous hsp90 were detected with anti-AcK and anti-hsp90 antibody, respectively.\nMB-468 cells ectopically expressing F-hsp90α were treated with 100 nM of LBH589 for 16 hours. Following this, equal amount of cell lysates were incubated with 0, 5, 10 or 50 nM of 17-AAG for 30 min at 4° C., followed by incubation with B-GA and streptavidin-coated agarose beads. Precipitates from streptavidin coated beads were analyzed with anti-F antibody."}, "[2]": {"test_system": "K/R mutants of hsp90α", "assay": "B-GA binding assay, HEK293 lysates expressing F-hsp90 K/R substitutions", "description": "as §1\nFollowing treatment with either vehicle or 100 nM of LBH, cell lysates from HEK293 cells expressing F-hsp90 or K/R substitutions were incubated with vehicle or 50 nM of 17-AAG followed by incubation with B-GA and streptavidin coated agarose beads. Precipitates from streptavidin coated beads were analyzed with anti-F antibody."}, "[3]": {"test_system": "acetylated hsp90α", "assay": "Confocal microscopy of membrane-associated acetylated hsp90α, MB-231 cells", "format": "cell-based", "conditions": "serum-starved MB-231 cells, 40 nM LBH589 for 16 hours, anti-Ac-K69 staining", "description": "MDA-MB-231 cells were cultured in a chamber slide in RPMI medium with 10% FBS or under serum-free conditions with or without 40 nM LBH589 for 16 hours and stained with anti-acetyl (Ac)-[…] antibody. Briefly, after 16 hours incubation, cells were washed with PBS and fixed with 4% paraformaldehyde for 10 minutes. Following this, the slides were blocked with 3% BSA for 30 minutes and incubated with primary antibody at a dilution of 1:100 in blocking buffer for 2 hours. Following three washes with PBS the slides were incubated in Alexa Fluor 488 anti-rabbit secondary antibody (Molecular probes, Invitrogen) for one hour at 1:3000 dilution. After three washes with PBS, the cells were counterstained with DAPI using Vectashield mountant with DAPI and imaged using Zeiss LSM510 confocal microscope. […] Serum-starved MB-231 cells were treated with 40 nM LBH589 for 16 hours, followed by staining with anti-AcK69 hsp90α antibody and confocal microscopy. Cells cultured in RPMI with 10% FBS and cells stained with rabbit IgG served as controls."}, "[4]": {"test_system": "hsp90α", "assay": "Acetylation of hsp90α in MB-231 cells (immunoblot with anti-AcK69-hsp90α antibody)", "format": "cell-based", "conditions": "MB-231 cells treated with LBH589", "from_the_text": "Next, a polyclonal antibody was generated against the acetylated K69-containing peptide of hsp90α (anti-Ac-K69). The specificity of the antibody was confirmed by determining its ability to detect the increase in the acetylation of the ectopically expressed […] hsp90α following treatment with the HDAC inhibitor LBH589. MB-231 cells were transfected with F-hsp90α followed by the treatment with LBH589. Immunoprecipitates of F-hsp90α with anti-M2 conjugated beads were immunoblotted with anti-K69-hsp90α antibody for the acetylation status and anti-F antibody for F-hsp90α expression. Cells transfected with empty vector followed the treatment with LBH589 served as control for specificity. Acetylation of endogenous hsp90αinduced by LBH589 was also detected with anti-AcK69-hsp90α antibody. Immunoprecipitates of endogenous hsp90α with anti-hsp90α antibody from cell lysates of MB-231 cells treated with or without LBH589 were immunoblotted with either anti-AcK69-hsp90α or anti-hsp90α (rabbit) antibody. IgG served as the control for specificity of the immunoprecipitates."}, "[5]": {"test_system": "acetylated hsp90α with MMP-2", "assay": "Extracellular co-immunoprecipitation of acetylated hsp90α with MMP-2, MDA-MB-231 supernatant", "format": "cell-based", "conditions": "supernatant of serum starved LBH treated MDA-MB-231 cells", "description": "Supernatant of serum starved LBH treated MDA-MB-231 cells was concentrated and immunoprecipitates with anti-hsp90α antibody were immunoblotted with anti-AcK, anti-MMP-2 or hsp90α antibody. […] Whether increased extracellular location of K69Q, K100Q or K558Q mutant promotes in vitro invasiveness of breast cancer cells was determined. For this, stable transfectants of MB-468 cells expressing the wild-type hsp90α we created, or the K/Q or K/R mutants of hsp90α at the residues K69, K100 and K558, and their in vitro invasiveness in the matrigel-based assay was evaluated."}, "[6]": {"test_system": "F-hsp90α", "assay": "Acetylation of F-hsp90α in HEK293 cells (immunoprecipitation, anti-AcK immunoblot)", "format": "cell-based", "conditions": "HEK293 cells with ectopic expression of FLAG (F)-hsp90α", "description": "Following culture in the plates for 24 hours, cells were transfected by Lipofectamine Plus following the protocol provided by Invitrogen (Carlsbad, Calif.). Transfected cells were cultured in full-medium containing drugs dissolved in DMSO or vehicle for 24 hours. Cellular extracts were prepared by directly adding lysis buffer (25 mM Tris-phosphate, pH 7.8, 2 mM DTT, 2 mM 1,2-diaminocyclohexane-N′,N′,N′,N′-tetraacetic acid, 10% glycerol, 0.2% Triton X-100) to the cells on ice. For immuno-precipitations (IP), 2×10^6 cells in 100 mm dishes were transfected and/or treated as described above. Cellular extracts were prepared and immunoprecipitation performed as described 24. For immunoblotting, cellular extracts or immunoprecipitates were separated on SDS-PAGE, transferred to a nitrocellulose membrane, probed with antibodies, and visualized with enhanced chemiluminescence, as described (Chen, Z., et al., Mol. Pharmacol., 69:1527-33 (2006)).\nHsp90 is acetylated both in vitro and in vivo. […] To determine whether p300 acts as the HAT for hsp90α, following incubation with p300 and acetyl-CoA, in vitro translated hsp90α was analyzed for its acetylation status by Western analysis with anti-AcK antibody. p300 was necessary for the acetylation of hsp90α in the in vitro assay. […] In HEK293 cells, it was determined that p300 can be coimmunoprecipitated with hsp90α. […]"}, "[7]": {"test_system": "hsp90α", "assay": "Export and extracellular localization of hsp90α from serum-starved T47D cells (immunoblot of medium)", "format": "cell-based", "from_the_text": "Previous reports have shown that the inducible isoform hsp90α, but not hsp90β, can be secreted and found on the surface of cancer cells, although it lacks the classical signal sequence (Eustace, B. K., et al., Nat Cell Biol., 6:507-14 (2004); Eustace, B. et al., Cell Cycle., 3:1098-1100 (2004)). […] Concentrated extra-cellular medium or cell lysates from T47D cells, which were either serum-starved or cultured in 10% FBS, were immunoblotted with anti-hsp90α antibody. β-actin served as a loading control. Under starvation, both endogenous and exogenous hsp90α are secreted from T47D cells in the acetylated form. Extra-cellular hsp90α was immunoprecipitated with anti-AcK antibody and immunoblotted with either anti-hsp90α or M2 antibody.\nTo further verify this, the export and extracellular location of acetylation mimetic (K/Q) or acetylation-resistant (K/R) mutants transfected into T47D cells that were cultured under serum-free condition were determined. In serum-starved T47D cells, K/R substitutions at K69, K100 and K558 decrease, while K/Q substitutions increase the level of extracellular hsp90α. Supernatants of serum starved T47D cells transfected with the F-tagged hsp90α mutant constructs K69Q, K100Q, K292Q, K327Q, K478Q, K546Q, and K558Q were concentrated and immunoblotted with anti-F antibody. Coomassie-stained non-specific proteins served as the loading control. […]"}, "[8]": {"test_system": "MB-231 cells", "assay": "In vitro matrigel invasion assay, MB-231 cells", "format": "cell-based", "conditions": "10, 20, 40 nM LBH589 (FIG. 1A)", "description": "In vitro invasion assay were performed, as previously described 12, 27 by using the Cultrex® Cell Invasion Assay kit (RandD Systems, Minneapolis, Minn.). In brief, serumstarved cells in 50 μL serum-free medium with or without antibody or IgG were placed in the top chamber and allowed to invade for 24 hours. The lower chambers (assay chamber) were filled with 10% FBS medium. After incubation, migrated cells on the […] chamber of the membrane were dissociated with cell dissociation solution containing Calcein AM at 37° C. for 1 hour and read the bottom plate at 485 nm excitation and 520 nm emission.\nThe effect of anti-hsp90α with anti-Ac-K69 hsp90α antibody on the in vitro invasiveness of MB-231 breast cancer cells was compared. Serum-starved MB-231 cells treated with 20 μg/mL anti-hsp90α or anti-AcK69 hsp90α antibody were used for determining in vitro matrigel invasion (see Example 4 for protocol). Untreated cells, or cells treated with IgG were used as controls."}}, "note": "“Also recorded” adds a separate entry of the source."}
{"compound": "17-allylamino-17-demethoxygeldanamycin [17-AAG]", "values": [{"measurement": "displacement of B-GA binding to hsp90", "setting": "[1]; lysates incubated with 0, 5, 10 or 50 nM 17-AAG for 30 min at 4° C., cells exposed or unexposed to LBH589", "value": "B-GA binding to hsp90 was reduced by 17-AAG treatment"}, {"measurement": "17-AAG binding to K/R mutants (displacement of B-GA)", "setting": "[2]; HEK293 lysates after 100 nM LBH, 50 nM 17-AAG", "value": "decreased binding of K/R mutants to 17-AAG"}]}
{"compound": "Cc1[nH]c2ccccc2c1CCNCc1ccc(/C=C/C(=O)NO)cc1", "note": "[LBH589]", "values": [{"measurement": "levels of membrane associated acetylated hsp90α", "setting": "[3]", "value": "increased levels of the membrane associated acetylated hsp90α"}, {"measurement": "acetylated hsp90α detected by anti-Ac-K69 hsp90α antibody", "setting": "[4]", "value": "increase in the acetylated hsp90α"}, {"measurement": "extra-cellular binding of acetylated hsp90α with MMP-2", "setting": "[5]", "value": "increased extra-cellular binding of acetylated hsp90α with MMP-2"}, {"measurement": "acetylation of F-hsp90α", "setting": "[6]", "value": "hyper-acetylation of F-hsp90α"}, {"measurement": "B-GA binding of hsp90α", "setting": "[1]; MDA-MB-468 cells treated with LBH589 for 16 hours", "value": "increase in B-GA binding of hsp90α"}, {"measurement": "17-AAG binding to acetylated endogenous hsp90", "setting": "[1]; MDA-MB-468 cells, 100 nM LBH589 for 16 hours, then lysates with 0, 5, 10 or 50 nM 17-AAG", "value": "promoted 17-AAG binding to the acetylated endogenous hsp90"}, {"measurement": "B-GA binding of K/R mutants of hsp90α", "setting": "[2]; HEK293 cells, 100 nM LBH", "value": "increased binding to B-GA"}, {"measurement": "export and extracellular location of K/R mutants of hsp90α", "setting": "[7]; serum-starved T47D cells transfected with K/R mutants, cotreatment with LBH589", "value": "increased the export and extracellular location of K/R mutants of hsp90α to a variable extent; also recorded: promote extracellular localization of K/R mutants of hsp90α"}, {"measurement": "export and extracellular localization of hyper-acetylated hsp90α", "setting": "[7]; serum-starved T47D cells, 0, 25, 50 or 100 nM LBH589", "value": "promoted and increased the export and extracellular localization of hyper-acetylated hsp90α; also recorded: occurs in a dose dependent manner"}, {"measurement": "matrigel invasion by MB-231 cells", "setting": "[8]", "value": "dose dependently increased matrigel invasion"}]}
{"compound": "O=C(CCCCCCC(=O)Nc1ccccc1)NO", "note": "[vorinostat]", "values": [{"measurement": "acetylation of F-hsp90α", "setting": "[6]", "value": "hyper-acetylation of F-hsp90α"}]}
